System: Genes belonging to other category
Assay: DNA chip mRNA expression in yeast, genes belonging to other category (Table 9)
Type: cell-based, Saccharomyces cerevisiae S288C
Outline: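 Cells were grown at 25° C. in YPD, treated at logarithmic phase for 2 h with a chemical at a concentration inhibiting growth but not causing death, and compared with untreated cultures. Labeled cDNA was hybridized to a DNA chip carrying all yeast genes, and the expression ratio was taken from scanner fluorescence.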

CCCCC[C@H](O)CC(=O)CCc1ccc(O)c(OC)c1 [(13), gingerol]
The level of expressed mRNA in the presence of chemical substance/The level of expressed mRNA in the absence of chemical substance (yeast gene YKL041W): 1.3 | The level of expressed mRNA in the presence of chemical substance/The level of expressed mRNA in the absence of chemical substance (yeast gene YKL096W): 0.1 | The level of expressed mRNA in the presence of chemical substance/The level of expressed mRNA in the absence of chemical substance (yeast gene YKL139W): 1.6 | The level of expressed mRNA in the presence of chemical substance/The level of expressed mRNA in the absence of chemical substance (yeast gene YKL165C): 3.2 | The level of expressed mRNA in the presence of chemical substance/The level of expressed mRNA in the absence of chemical substance (yeast gene YKL190W): 1.3 | The level of expressed mRNA in the presence of chemical substance/The level of expressed mRNA in the absence of chemical substance (yeast gene YKL193C): 2.1 | The level of expressed mRNA in the presence of chemical substance/The level of expressed mRNA in the absence of chemical substance (yeast gene YKR014C): 1.5 | The level of expressed mRNA in the presence of chemical substance/The level of expressed mRNA in the absence of chemical substance (yeast gene YLL051C): 1.3 | The level of expressed mRNA in the presence of chemical substance/The level of expressed mRNA in the absence of chemical substance (yeast gene YLR090W): 1.7 | The level of expressed mRNA in the presence of chemical substance/The level of expressed mRNA in the absence of chemical substance (yeast gene YLR093C): 1.3 | The level of expressed mRNA in the presence of chemical substance/The level of expressed mRNA in the absence of chemical substance (yeast gene YLR120C): 4.8 | The level of expressed mRNA in the presence of chemical substance/The level of expressed mRNA in the absence of chemical substance (yeast gene YLR136C): 2.9 | The level of expressed mRNA in the presence of chemical substance/The level of expressed mRNA in the absence of chemical substance (yeast gene YLR250W): 1.2 | The level of expressed mRNA in the presence of chemical substance/The level of expressed mRNA in the absence of chemical substance (yeast gene YLR251W): 1.7 | The level of expressed mRNA in the presence of chemical substance/The level of expressed mRNA in the absence of chemical substance (yeast gene YLR327C): 2.8 | The level of expressed mRNA in the presence of chemical substance/The level of expressed mRNA in the absence of chemical substance (yeast gene YMR004W): 2.2 | The level of expressed mRNA in the presence of chemical substance/The level of expressed mRNA in the absence of chemical substance (yeast gene YMR051C): 1.3 | The level of expressed mRNA in the presence of chemical substance/The level of expressed mRNA in the absence of chemical substance (yeast gene YMR104C): 1.5 | The level of expressed mRNA in the presence of chemical substance/The level of expressed mRNA in the absence of chemical substance (yeast gene YMR139W): 1.6 | The level of expressed mRNA in the presence of chemical substance/The level of expressed mRNA in the absence of chemical substance (yeast gene YMR219W): 2.1 | The level of expressed mRNA in the presence of chemical substance/The level of expressed mRNA in the absence of chemical substance (yeast gene YMR226C): 1.6 | The level of expressed mRNA in the presence of chemical substance/The level of expressed mRNA in the absence of chemical substance (yeast gene YMR262W): 1.7 | The level of expressed mRNA in the presence of chemical substance/The level of expressed mRNA in the absence of chemical substance (yeast gene YMR275C): 2.1 | The level of expressed mRNA in the presence of chemical substance/The level of expressed mRNA in the absence of chemical substance (yeast gene YMR276W): 1.9 | The level of expressed mRNA in the presence of chemical substance/The level of expressed mRNA in the absence of chemical substance (yeast gene YMR314W): 2.6 | The level of expressed mRNA in the presence of chemical substance/The level of expressed mRNA in the absence of chemical substance (yeast gene YNL006W): 2.3 | The level of expressed mRNA in the presence of chemical substance/The level of expressed mRNA in the absence of chemical substance (yeast gene YNL007C): 2.1 | The level of expressed mRNA in the presence of chemical substance/The level of expressed mRNA in the absence of chemical substance (yeast gene YNL093W): 2.2 | The level of expressed mRNA in the presence of chemical substance/The level of expressed mRNA in the absence of chemical substance (yeast gene YNL214W): 1.2 | The level of expressed mRNA in the presence of chemical substance/The level of expressed mRNA in the absence of chemical substance (yeast gene YNL223W): 2.0 | The level of expressed mRNA in the presence of chemical substance/The level of expressed mRNA in the absence of chemical substance (yeast gene YNL333W): 2.2 | The level of expressed mRNA in the presence of chemical substance/The level of expressed mRNA in the absence of chemical substance (yeast gene YNR007C): 1.5 | The level of expressed mRNA in the presence of chemical substance/The level of expressed mRNA in the absence of chemical substance (yeast gene YNR010W): 2.8 | The level of expressed mRNA in the presence of chemical substance/The level of expressed mRNA in the absence of chemical substance (yeast gene YNR035C): 1.7 | The level of expressed mRNA in the presence of chemical substance/The level of expressed mRNA in the absence of chemical substance (yeast gene YOL013C): 1.8 | The level of expressed mRNA in the presence of chemical substance/The level of expressed mRNA in the absence of chemical substance (yeast gene YOL016C): 3.0 | The level of expressed mRNA in the presence of chemical substance/The level of expressed mRNA in the absence of chemical substance (yeast gene YOL104C): 0.6 | The level of expressed mRNA in the presence of chemical substance/The level of expressed mRNA in the absence of chemical substance (yeast gene YOR117W): 2.3 | The level of expressed mRNA in the presence of chemical substance/The level of expressed mRNA in the absence of chemical substance (yeast gene YOR149C): 1.3 | The level of expressed mRNA in the presence of chemical substance/The level of expressed mRNA in the absence of chemical substance (yeast gene YOR181W): 1.2 | The level of expressed mRNA in the presence of chemical substance/The level of expressed mRNA in the absence of chemical substance (yeast gene YOR185C): 2.2 | The level of expressed mRNA in the presence of chemical substance/The level of expressed mRNA in the absence of chemical substance (yeast gene YOR355W): 1.1 | The level of expressed mRNA in the presence of chemical substance/The level of expressed mRNA in the absence of chemical substance (yeast gene YOR381W): 1.7 | The level of expressed mRNA in the presence of chemical substance/The level of expressed mRNA in the absence of chemical substance (yeast gene YOR383C): 1.2 | The level of expressed mRNA in the presence of chemical substance/The level of expressed mRNA in the absence of chemical substance (yeast gene YPL018W): 2.2 | The level of expressed mRNA in the presence of chemical substance/The level of expressed mRNA in the absence of chemical substance (yeast gene YPL089C): 1.3 | The level of expressed mRNA in the presence of chemical substance/The level of expressed mRNA in the absence of chemical substance (yeast gene YPL149W): 2.3 | The level of expressed mRNA in the presence of chemical substance/The level of expressed mRNA in the absence of chemical substance (yeast gene YPL203W): 1.5 | The level of expressed mRNA in the presence of chemical substance/The level of expressed mRNA in the absence of chemical substance (yeast gene YPL255W): 0.6 | The level of expressed mRNA in the presence of chemical substance/The level of expressed mRNA in the absence of chemical substance (yeast gene YPR108W): 2.6

From patent US8192962B2, “Processes for detecting toxic substances” (Daikin Industries, Ltd., priority 2001, dated 2012)
